The values that follow come from patent publication US12502365B2 (Instytut Biologii Doswiadczalnej Im. Marcelego Nenckiego …, priority 2019, dated 2025).

Structures are written as SMILES.

The subject of data set [1] is MMP-1, MMP-2, MMP-3, MMP-7 and MMP-9. The note with it: cited from earlier work.
For data set [2] the following is noted: humans, oral; cited from earlier work.
The test system of data set [3] is mouse model of epileptogenesis (intra-hippocampal kainic acid injection). In words: Functional analysis in mouse model of epileptogenesis (intra-hippocampal kainic acid injection), video-EEG. It counts as in vivo, mice. The note with it: for duration of the single seizure: P=0.02. As to the method:
The functional analysis of therapeutic use of marimastat in mouse model of epileptogenesis (intra-hippocampal kainic acid injection) was performed. Epileptogenesis was induced by the administration of kainic acid directly into the CA1 region of the hippocampus, during stereotactic surgeries. Coordinates for CA1 were chosen according to Paxinos Mouse Brain Atlas. […] The mice were injected intraperitoneally (9 mg/kg b.w.), 3 times after administration of kainic acid at: • 1. 30 minutes • 2. 6 hours • 3. […] Each group consisted of 6 animals; the experiment was performed in two repetitions. Simultaneously, just after KA injections, mice were implanted with cranial and hippocampal electrodes for EEG registration (FIG. 3). […] Injected kainic acid stimulated the degeneration within CA1 and CA3 region, but also led to the changes within dentate gyms area. One of the most important changes observed in the epileptogenesis process was mossy fiber sprouting located in dentate gyms DG. Mossy fiber sprouting is defined as an aberrant sprouting of granule cells axons (mossy fibers) into the inner molecular layer of the dentate gyrus. This process is observed in patients with temporal lobe epilepsy (Buckmaster, 2012). Therefore, hippocampal electrode location was implanted into DG, below the injection site, according to coordinates: The electrode implantation process proceeded according to the following protocol. Stainless steel screw electrodes (Ø1.6 mm, Bilaney Consultants GmbH, Germany) were placed in the skull (Table 3; FIG. 3). A bipolar hippocampal electrode was positioned in the dentate gyms. The 2-week continuous (24 h/7 days) video-EEG (vEEG) monitoring was started immediately after KA injection. Mice were placed in PMMA cages (one mouse per cage) and connected to the recording system with commutators (SL6C, Plastics One Inc., USA). vEEG was performed using the Twin EEG recording system connected to a Comet EEG PLUS with 57-channel amplifier AS40-PLUS (Natus Medical Incorporated, USA) and filtered (high-pass filter cut-off 0.3 Hz, low-pass filter cut off 100 Hz). The behavior of the animals was recorded using a digital camera I-PRO WV-SC385 (Panasonic, Japan). As outcome measures, the present Inventors assessed the occurrence, frequency and duration of spontaneous seizures. An electroencephalographic seizure was defined as a high amplitude (>2× baseline) rhythmic discharge that clearly represented an abnormal EEG pattern that lasted >5 s. The frequency of seizures in each mouse was calculated as the number of seizures per completed EEG recording day or per week. Modified Racine's scale was used in the study (Racine, 1972): The experiment was divided into three parts: • 1) first 24 hours post-KA injection (acute response to injected convulsant) • 2) first week post-KA injection (acute response to injected convulsant) • 3) 4 weeks after KA injection (epileptogenesis upon injected convulsant—chronic changes) In each stage, several parameters were calculated: seizure duration (in seconds), seizure score (according the Racine scale), seizure number (per animal/per day). Additionally, in the first 24 hours, the time between the kainic acid injection and first epileptic seizure was also estimated.

For data set [4] the following is noted: single dose up to 800 mg or repeated dose up to 200 mg twice a day for a week; cited from earlier work.
Data set [5] addresses T1, MMP-9 (Rattus norvegicus, UniProt P50282).
T1 construct: stimulate neuronal cell activity leading to release of MMP-9; endogenous in cells; host or cells: primary rat hippocampal neurons, 7 DIV
In words: Inhibition of MMP-9-dependent nectin-3 cleavage in glutamate-stimulated hippocampal neuron cultures (immunoblotting). It counts as cell-based. Here is the method: In the first non-limiting example, the compound was tested for specific inhibition of MMP-9 activity in vitro. Hippocampal neurons were prepared from newborn Wistar rats at postnatal day P0 as described previously (Habas et al., 2006). The culture medium consisted of Neurobasal Medium supplemented with B27 (Invitrogen) and 1 mM 1-glutamine, 100 U ml^−1 penicillin and 0.1 mg ml^−1 streptomycin. The cells used for these experiments were 7 DIV. […] The control cultures consisted of neurons stimulated with glutamate and of glutamate in the presence of inhibitor I (an inhibitor with proven inhibitory effect on MMP-9 activity). […] The MMP-9 activity level was evaluated by the cleavage of MMP-9 substrate-nectin-3.
Nectin-3 is a transmembrane protein predominantly expressed at post-synaptic part of the synapse (van der Kooij et al., 2014). […] We evaluated the basic amount of nectin-3 (by immunoblotting) and the presence of a cut fragment of nectin-3 (approximately 17 kDa).
For immunoblotting, cultures were homogenized in a lysis buffer containing 1 mM MgCl2, 5 mM HEPES (pH=7.4), 320 mM sucrose, 1 mM Na2F, and cOmplete™ Protease Inhibitor Cocktail (Roche) using Dounce glass homogenizer. Protein concentration was measured using BCA Protein Assay Kit (Pierce). […] For the quantification of individual bands, the scan of the photographic film was analyzed by densitometry using GeneTools software (Syngene).
(Immunoblotting shows a protein as a band on a membrane.)

Data set [6] concerns the target T2, MMP-9 (Mus musculus, UniProt P41245).
T2 construct: strongly associated with the release of MMP-9 from dendritic spines; from tissue; host or cells: mouse hippocampus (in vivo, after kainic acid)
As to the kind of experiment: MMP-9-dependent nectin-3 cleavage in hippocampus after kainic acid injection (immunoblotting). It is filed as in vivo, mice. As to conditions: 9 mg/kg i.p. 1 hour prior to KA; hippocampus 6 hours after KA. As to the method: In a further nonlimiting example, marimastat was tested in vivo, in a mouse model of epileptogenesis (intra-hippocampal kainic acid injection). […] This is the optimal time allowing for its potential therapeutic effects. […] As a result of the KA injection, strong epileptic seizures were observed due to increased neuronal activity.
The process of developing epileptic seizures evoked by KA (epileptogenesis) is strongly associated with the release of MMP-9 from dendritic spines. […] For this purpose, after 6 hours following KA-injection the hippocampus was isolated and the immunoblotting assay was performed for the presence of cleaved form of nectin-3 protein.

Data set [7] concerns murine cancer models: melanoma, hemangioma, ovarian carcinoma, colorectal, breast and pancreatic cancer. The note with it: cited from earlier work.
[8] abbreviates: 4 weeks after KA injection, not significant.

T1 sequence (P50282 108-708): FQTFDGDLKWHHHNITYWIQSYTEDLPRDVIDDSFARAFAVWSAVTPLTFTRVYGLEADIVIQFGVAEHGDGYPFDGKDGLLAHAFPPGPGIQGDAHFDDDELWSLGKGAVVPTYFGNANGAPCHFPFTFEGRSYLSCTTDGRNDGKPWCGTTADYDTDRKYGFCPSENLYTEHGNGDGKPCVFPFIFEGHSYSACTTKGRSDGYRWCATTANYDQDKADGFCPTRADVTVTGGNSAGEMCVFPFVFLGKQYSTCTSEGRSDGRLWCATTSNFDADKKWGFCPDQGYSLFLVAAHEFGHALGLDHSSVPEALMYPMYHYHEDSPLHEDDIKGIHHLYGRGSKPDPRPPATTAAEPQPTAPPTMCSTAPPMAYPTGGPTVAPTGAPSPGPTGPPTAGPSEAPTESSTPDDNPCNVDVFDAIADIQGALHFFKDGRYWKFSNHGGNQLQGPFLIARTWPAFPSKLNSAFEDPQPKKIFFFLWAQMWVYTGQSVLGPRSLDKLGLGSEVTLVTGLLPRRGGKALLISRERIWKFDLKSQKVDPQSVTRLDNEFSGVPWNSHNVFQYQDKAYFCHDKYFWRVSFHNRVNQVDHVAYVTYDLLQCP
T2 sequence (P41245 108-730): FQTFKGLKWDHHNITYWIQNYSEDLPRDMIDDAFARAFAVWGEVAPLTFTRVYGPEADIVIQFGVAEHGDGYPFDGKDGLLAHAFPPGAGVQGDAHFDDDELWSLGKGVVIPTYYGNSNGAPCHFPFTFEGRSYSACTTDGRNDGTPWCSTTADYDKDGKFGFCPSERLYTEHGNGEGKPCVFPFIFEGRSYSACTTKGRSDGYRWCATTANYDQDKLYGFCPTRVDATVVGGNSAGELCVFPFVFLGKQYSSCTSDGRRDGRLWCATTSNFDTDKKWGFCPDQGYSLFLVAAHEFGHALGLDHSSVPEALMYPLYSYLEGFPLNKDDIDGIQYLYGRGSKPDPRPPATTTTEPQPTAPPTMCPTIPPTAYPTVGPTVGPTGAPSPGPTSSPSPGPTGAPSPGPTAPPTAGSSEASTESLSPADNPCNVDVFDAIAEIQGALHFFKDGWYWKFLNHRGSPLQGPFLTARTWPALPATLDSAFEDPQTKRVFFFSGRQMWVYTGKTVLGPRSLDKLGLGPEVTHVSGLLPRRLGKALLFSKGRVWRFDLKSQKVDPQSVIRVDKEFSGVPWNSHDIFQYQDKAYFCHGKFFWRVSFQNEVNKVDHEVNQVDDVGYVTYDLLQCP

For `CNC(=O)[C@@H](NC(=O)[C@H](CC(C)C)[C@H](O)C(=O)NO)C(C)(C)C` [marimastat, Marimastat], in data set [1], the “inhibitory activity against major MMPs” value was “potent broad-spectrum inhibitory activity”. In data set [2], the bioavailability entry was “high and predictable”; the half-life entry was “approximately 15 hours”. In addition, the “duration of the single seizure” value in data set [3] (4 weeks after KA injection) is “inhibited”. In data set [3] (setting [8]), the seizure number result is “slightly decreased” and the seizure score result is reported as “slightly decreased”. Further, in data set [3] (first 24 hours post-KA), the “latency to the 1st seizure” value is given as “no differences” and the seizure duration result is listed as “no differences”. The “seizure score (Racine scale)” value in data set [3] (first 24 hours post-KA, 9 mg/kg i.p. at 30 min, 6 h, 24 h, P=0.0016) is “significantly decreased”. The seizure number entry in data set [3] (first 24 hours post-KA, P=0.005) is on record as “significantly decreased”. Besides, in data set [3] (first week post-KA), the seizure number entry is given as “did not change”, the seizure score entry was “did not change” and the “duration of the single seizure” value is “significantly reduced”. Further, in data set [4], the “side effects in healthy subjects” value is given as “did not show any side effects”. Moreover, the “MMP-9-dependent cleavage of nectin-3 in vitro” value at MMP-9 [5] (hippocampal dissociated cell cultures, 7 DIV, glutamate 5 μM, 17 kDa nectin-3 fragment) is on record as “inhibits”. The “minimum effective dose inhibiting nectin-3 cleavage” value on MMP-9 [5] (tested at 5 nM, 0.5 μM, 5 μM, 40 μM and 100 μM, 30 min before glutamate) turned out to be 0.5 µM. Also, the “MMP-9-dependent nectin-3 enzymatic cleavage in vivo (optical density of the 17 kDa nectin-3 fragment)” value at MMP-9 [6] was “specifically reduced”. Also, the tumor progression entry in data set [7] is “inhibited tumor progression”.
